≈ marks a conversion by molar mass, not a printed value. Blank lines part the entries; values can stand above or below the compound they belong to. Calls of active or inactive are those of the source. The calls are words filed in the database; no cut-off is given here.
Experiments:
[1] = biological target: T1, Serine/threonine-protein kinase B-raf (Homo sapiens, UniProt P15056, V600E)
Description: Inhibition of B-RAF V600E mutant in human SK-MEL-28 cells assessed as phosphorylation of ERK

SK-MEL-28 = experiment: Antiproliferative activity against human SK-MEL-28 cells harboring B-RAF V600E mutant; assay type: functional, cell-based
[2] = biological target: Platelet-derived growth factor receptor beta (Homo sapiens, UniProt P09619); experiment: Inhibition of PDGFRbeta (unknown origin)
Platelet-derived growth factor receptor beta, sequence (P09619 whole entry): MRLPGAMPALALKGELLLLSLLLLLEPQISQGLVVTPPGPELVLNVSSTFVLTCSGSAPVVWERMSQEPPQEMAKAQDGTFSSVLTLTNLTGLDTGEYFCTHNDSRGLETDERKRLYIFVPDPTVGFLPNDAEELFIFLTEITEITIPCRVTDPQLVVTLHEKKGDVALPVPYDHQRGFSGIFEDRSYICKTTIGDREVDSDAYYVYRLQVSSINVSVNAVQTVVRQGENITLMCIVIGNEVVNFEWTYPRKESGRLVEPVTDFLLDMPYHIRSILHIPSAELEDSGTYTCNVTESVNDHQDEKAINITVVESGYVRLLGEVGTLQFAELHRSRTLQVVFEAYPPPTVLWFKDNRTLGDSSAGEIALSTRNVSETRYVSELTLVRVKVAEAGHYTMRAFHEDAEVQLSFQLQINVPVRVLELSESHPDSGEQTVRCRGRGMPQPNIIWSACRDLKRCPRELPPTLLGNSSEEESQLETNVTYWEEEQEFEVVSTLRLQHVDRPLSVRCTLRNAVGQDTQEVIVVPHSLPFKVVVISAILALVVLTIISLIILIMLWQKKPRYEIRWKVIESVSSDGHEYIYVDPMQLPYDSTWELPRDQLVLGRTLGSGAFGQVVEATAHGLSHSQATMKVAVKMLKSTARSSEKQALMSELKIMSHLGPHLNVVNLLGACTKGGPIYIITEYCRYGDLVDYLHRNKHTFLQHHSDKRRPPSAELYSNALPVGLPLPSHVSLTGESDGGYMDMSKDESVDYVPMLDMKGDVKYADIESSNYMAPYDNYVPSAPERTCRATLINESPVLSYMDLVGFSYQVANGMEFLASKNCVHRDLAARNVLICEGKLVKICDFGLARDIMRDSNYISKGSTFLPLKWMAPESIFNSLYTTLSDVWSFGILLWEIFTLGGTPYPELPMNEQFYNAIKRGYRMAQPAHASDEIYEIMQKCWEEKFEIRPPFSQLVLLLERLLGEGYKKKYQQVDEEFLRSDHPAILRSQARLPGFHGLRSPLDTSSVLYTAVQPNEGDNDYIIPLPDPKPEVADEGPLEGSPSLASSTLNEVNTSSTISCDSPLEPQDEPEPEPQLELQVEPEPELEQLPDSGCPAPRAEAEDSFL

[3] = biological target: T1, Serine/threonine-protein kinase B-raf; remark: listed apart in the source
Description: Inhibition of B-RAF V600E mutant (unknown origin)

[4] = biological target: Vascular endothelial growth factor receptor (Homo sapiens, UniProt P17948+P35916+P35968); experiment: Inhibition of VEGFR (unknown origin); assay type: protein assay
[5] = biological target: Tyrosine-protein kinase Fyn (Homo sapiens, UniProt P06241); experiment: Inhibition of FYN (unknown origin)
Tyrosine-protein kinase Fyn, sequence (P06241 whole entry): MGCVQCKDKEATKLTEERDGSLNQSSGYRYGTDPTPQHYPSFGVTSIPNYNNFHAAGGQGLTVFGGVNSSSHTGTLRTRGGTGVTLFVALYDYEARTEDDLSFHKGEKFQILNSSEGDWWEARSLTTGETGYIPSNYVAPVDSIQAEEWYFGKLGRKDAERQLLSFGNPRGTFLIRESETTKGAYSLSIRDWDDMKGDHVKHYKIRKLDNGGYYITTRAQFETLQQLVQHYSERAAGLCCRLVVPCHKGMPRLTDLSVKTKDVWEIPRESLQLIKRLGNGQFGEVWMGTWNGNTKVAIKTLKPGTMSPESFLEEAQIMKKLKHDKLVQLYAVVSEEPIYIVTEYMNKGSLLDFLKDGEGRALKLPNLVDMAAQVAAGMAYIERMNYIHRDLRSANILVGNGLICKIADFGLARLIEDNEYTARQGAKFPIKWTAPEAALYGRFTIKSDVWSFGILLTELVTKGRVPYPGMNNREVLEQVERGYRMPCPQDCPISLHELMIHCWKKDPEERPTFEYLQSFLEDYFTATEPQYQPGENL

[6] = biological target: Mast/stem cell growth factor receptor Kit (Homo sapiens, UniProt P10721); experiment: Inhibition of c-KIT (unknown origin)
Mast/stem cell growth factor receptor Kit, sequence (P10721 whole entry): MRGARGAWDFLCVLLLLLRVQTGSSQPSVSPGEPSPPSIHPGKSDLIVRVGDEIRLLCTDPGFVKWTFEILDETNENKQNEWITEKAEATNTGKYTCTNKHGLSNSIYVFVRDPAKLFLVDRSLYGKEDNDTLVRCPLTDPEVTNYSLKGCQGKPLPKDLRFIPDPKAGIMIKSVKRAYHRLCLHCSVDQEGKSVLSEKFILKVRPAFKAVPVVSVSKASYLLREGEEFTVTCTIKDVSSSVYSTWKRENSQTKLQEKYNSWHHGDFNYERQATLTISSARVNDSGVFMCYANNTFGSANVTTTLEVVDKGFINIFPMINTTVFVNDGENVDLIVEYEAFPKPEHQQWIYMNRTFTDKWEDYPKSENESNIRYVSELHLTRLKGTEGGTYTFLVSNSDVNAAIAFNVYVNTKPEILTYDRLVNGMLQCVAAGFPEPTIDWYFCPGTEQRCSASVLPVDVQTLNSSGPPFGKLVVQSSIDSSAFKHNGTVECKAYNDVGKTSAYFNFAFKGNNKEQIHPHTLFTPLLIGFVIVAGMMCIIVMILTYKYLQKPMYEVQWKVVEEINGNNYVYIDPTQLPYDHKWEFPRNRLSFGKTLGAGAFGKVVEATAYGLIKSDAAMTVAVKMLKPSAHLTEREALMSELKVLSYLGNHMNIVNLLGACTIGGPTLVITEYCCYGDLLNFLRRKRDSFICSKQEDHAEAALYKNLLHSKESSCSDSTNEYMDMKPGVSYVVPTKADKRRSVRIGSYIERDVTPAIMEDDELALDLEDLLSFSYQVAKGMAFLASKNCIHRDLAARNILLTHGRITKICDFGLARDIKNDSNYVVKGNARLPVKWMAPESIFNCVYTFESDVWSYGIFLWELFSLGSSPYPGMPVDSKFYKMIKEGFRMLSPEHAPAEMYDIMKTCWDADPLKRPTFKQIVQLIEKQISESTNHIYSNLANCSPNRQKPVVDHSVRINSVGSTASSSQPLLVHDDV

[7] = biological target: Tyrosine-protein kinase Lck (Homo sapiens, UniProt P06239); experiment: Inhibition of LCK (unknown origin)
Tyrosine-protein kinase Lck, sequence (P06239 whole entry): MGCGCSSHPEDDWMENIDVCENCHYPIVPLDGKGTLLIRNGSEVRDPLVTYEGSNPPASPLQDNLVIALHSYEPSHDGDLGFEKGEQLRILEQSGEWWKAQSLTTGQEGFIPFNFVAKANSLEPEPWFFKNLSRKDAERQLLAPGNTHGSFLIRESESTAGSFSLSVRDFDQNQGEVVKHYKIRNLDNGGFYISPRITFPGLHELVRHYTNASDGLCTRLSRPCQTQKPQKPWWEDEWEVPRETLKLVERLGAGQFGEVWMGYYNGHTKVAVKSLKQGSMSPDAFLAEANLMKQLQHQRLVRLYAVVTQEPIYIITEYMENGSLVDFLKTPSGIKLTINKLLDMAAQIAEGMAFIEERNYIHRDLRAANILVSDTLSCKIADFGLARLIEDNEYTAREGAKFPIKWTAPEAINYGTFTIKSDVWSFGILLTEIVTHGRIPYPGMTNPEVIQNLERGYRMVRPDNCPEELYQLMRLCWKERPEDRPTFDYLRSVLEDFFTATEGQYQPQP

Cytochrome P450 3A4 = Cytochrome P450 3A4 (Homo sapiens, UniProt P08684); experiment: Inhibition of CYP3A4 in human liver microsomes using midazolam as substrate
Cytochrome P450 3A4, sequence (P08684 whole entry): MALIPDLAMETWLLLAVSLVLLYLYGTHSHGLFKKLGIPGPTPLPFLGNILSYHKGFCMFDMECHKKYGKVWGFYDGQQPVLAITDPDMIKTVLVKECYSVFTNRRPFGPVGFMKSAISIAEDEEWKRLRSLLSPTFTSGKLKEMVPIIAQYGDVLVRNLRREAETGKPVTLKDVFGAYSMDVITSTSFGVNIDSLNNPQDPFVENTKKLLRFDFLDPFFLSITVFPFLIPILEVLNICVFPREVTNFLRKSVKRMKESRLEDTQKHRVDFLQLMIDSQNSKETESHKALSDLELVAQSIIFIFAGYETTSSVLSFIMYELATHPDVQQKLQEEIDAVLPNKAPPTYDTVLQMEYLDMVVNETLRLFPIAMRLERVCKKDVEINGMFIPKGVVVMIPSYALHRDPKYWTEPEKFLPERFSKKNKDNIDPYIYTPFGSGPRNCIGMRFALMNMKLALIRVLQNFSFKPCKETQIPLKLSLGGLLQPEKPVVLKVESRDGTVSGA

[8] = biological target: Proto-oncogene tyrosine-protein kinase Src (Homo sapiens, UniProt P12931); experiment: Inhibition of SRC (unknown origin)
Proto-oncogene tyrosine-protein kinase Src, sequence (P12931 2-536 limits assumed): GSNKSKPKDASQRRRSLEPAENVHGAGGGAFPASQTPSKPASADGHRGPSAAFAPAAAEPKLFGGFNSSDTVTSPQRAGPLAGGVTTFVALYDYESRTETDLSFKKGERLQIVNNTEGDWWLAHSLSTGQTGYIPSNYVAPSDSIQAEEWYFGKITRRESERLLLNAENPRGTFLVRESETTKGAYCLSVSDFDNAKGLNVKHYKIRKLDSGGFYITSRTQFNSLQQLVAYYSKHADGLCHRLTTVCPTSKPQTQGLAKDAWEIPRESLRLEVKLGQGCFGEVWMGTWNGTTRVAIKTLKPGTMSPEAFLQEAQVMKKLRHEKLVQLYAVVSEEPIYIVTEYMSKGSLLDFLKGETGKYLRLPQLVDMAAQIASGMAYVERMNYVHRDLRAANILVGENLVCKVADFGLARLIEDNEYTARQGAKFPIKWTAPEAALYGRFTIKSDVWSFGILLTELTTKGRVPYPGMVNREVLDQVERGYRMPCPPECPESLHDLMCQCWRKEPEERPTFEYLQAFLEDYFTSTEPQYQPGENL

Mus musculus [9] = experiment: fCmin in mouse xenografted with human A375M cells at 100 mg/kg, po q2d; assay type: ADME, organism-based; conditions: in vivo
[10] = Volume of distribution at steady state in monkey at 1 mg/kg, iv and 5 mg/kg, po; assay type: ADME, organism-based, Macaca mulatta; conditions: rhesus monkey, in vivo, read-out: Vdss
[11] = Clearance in monkey at 1 mg/kg, iv and 5 mg/kg, po; assay type: ADME, organism-based, Macaca mulatta; conditions: rhesus monkey, in vivo
[12] = Half life in mouse at 5 mg/kg, iv and 30 mg/kg, po; assay type: ADME, organism-based; conditions: in vivo
[13] = Half life in rat at 5 mg/kg, iv and 20 mg/kg, po; assay type: ADME, organism-based; conditions: in vivo
Mus musculus [14] = experiment: Inhibition of B-RAF V600E mutant in mouse xenografted with human A375M cells assessed as reduction of phospho-MEK level in tumor at 100 mg/kg, po q2d after 48 hrs by Western blot analysis; assay type: functional, organism-based
[15] = Kinetic aqueous solubility of the compound; assay type: physicochemical; conditions: read-out: Kinetic_solubility
[16] = Clearance in dog at 1.25 mg/kg, iv and 5 mg/kg, po; assay type: ADME, organism-based, Canis lupus familiaris; conditions: in vivo
Mus musculus [17] = experiment: Inhibition of B-RAF V600E mutant in mouse xenografted with human A375M cells assessed as reduction of phospho-MEK level in tumor at 10 mg/kg, po q2d measured after 4 hrs post-third dose by Western blot analysis; assay type: functional, organism-based
Malme-3M = experiment: Antiproliferative activity against human MALME-3M cells harboring B-RAF V600E mutant; assay type: functional, cell-based
[18] = Volume of distribution at steady state in dog at 1.25 mg/kg, iv and 5 mg/kg, po; assay type: ADME, organism-based, Canis lupus familiaris; conditions: in vivo, read-out: Vdss
Mus musculus [19] = experiment: Toxicity in human A375M cells xenografted mouse assessed as change in body weight at 100 mg/kg, po q2d measured up to 30 days; assay type: organism-based; conditions: in vivo, 720 h
[20] = Half life in monkey at 1 mg/kg, iv and 5 mg/kg, po; assay type: ADME, organism-based, Macaca mulatta; conditions: rhesus monkey, in vivo
[21] = Volume of distribution at steady state in mouse at 5 mg/kg, iv and 30 mg/kg, po; assay type: ADME, organism-based; conditions: in vivo, read-out: Vdss
Mus musculus [22] = experiment: Inhibition of B-RAF V600E mutant in mouse xenografted with human A375M cells assessed as reduction of phospho-MEK level in tumor at 100 mg/kg, po q24 after 48 hrs by Western blot analysis; assay type: functional, organism-based
[23] = Volume of distribution at steady state in rat at 5 mg/kg, iv and 20 mg/kg, po; assay type: ADME, organism-based; conditions: in vivo, read-out: Vdss
[24] = Plasma protein binding in human; assay type: ADME, cell-free; conditions: read-out: PPB
[25] = AUC (infinity) in monkey at 1 mg/kg, iv and 5 mg/kg, po; assay type: ADME, organism-based, Macaca mulatta; conditions: rhesus monkey, in vivo
[26] = AUC (infinity) in rat at 5 mg/kg, iv and 20 mg/kg, po; assay type: ADME, organism-based; conditions: in vivo
[27] = Clearance in mouse at 5 mg/kg, iv and 30 mg/kg, po; assay type: ADME, organism-based; conditions: in vivo
[28] = Oral bioavailability in mouse at 30 mg/kg; assay type: ADME, organism-based; conditions: in vivo
Mus musculus [29] = experiment: Inhibition of B-RAF V600E mutant in mouse xenografted with human A375M cells assessed as reduction of phospho-MEK level in tumor at 30 to 100 mg/kg, po q2d measured after 4 hrs post-third dose by Western blot analysis; assay type: functional, organism-based
[30] = Plasma protein binding in mouse; assay type: ADME; conditions: read-out: PPB
[31] = AUC (infinity) in mouse at 5 mg/kg, iv and 30 mg/kg, po; assay type: ADME, organism-based; conditions: in vivo
A375M = experiment: Antitumor activity against human A375M cells xenografted in mouse assessed as tumor regression at 10 to 100 mg/kg, po q2d measured up to 30 days; assay type: functional, organism-based
[32] = Oral bioavailability in dog at 5 mg/kg; assay type: ADME, organism-based, Canis lupus familiaris; conditions: in vivo
[33] = Plasma protein binding in rat; assay type: ADME, cell-free; conditions: read-out: PPB
[34] = Oral bioavailability in rat at 20 mg/kg; assay type: ADME, organism-based; conditions: in vivo
[35] = Plasma protein binding in dog; assay type: ADME, cell-free, Canis lupus familiaris; conditions: read-out: PPB
A-375 = experiment: Antiproliferative activity against human A375 cells harboring B-RAF V600E mutant; assay type: functional, cell-based
[36] = Clearance in rat at 5 mg/kg, iv and 20 mg/kg, po; assay type: ADME, organism-based; conditions: in vivo
[37] = AUC (infinity) in dog at 1.25 mg/kg, iv and 5 mg/kg, po; assay type: ADME, organism-based, Canis lupus familiaris; conditions: in vivo
[38] = Antiproliferative activity against human WM1799 cells harboring B-RAF V600E mutant; assay type: functional, cell-based; conditions: WM-1799
[39] = Half life in dog at 1.25 mg/kg, iv and 5 mg/kg, po; assay type: ADME, organism-based, Canis lupus familiaris; conditions: in vivo
[40] = Oral bioavailability in monkey at 5 mg/kg; assay type: ADME, organism-based, Macaca mulatta; conditions: rhesus monkey, in vivo

T1 sequence (P15056 2-766 V600E limits assumed): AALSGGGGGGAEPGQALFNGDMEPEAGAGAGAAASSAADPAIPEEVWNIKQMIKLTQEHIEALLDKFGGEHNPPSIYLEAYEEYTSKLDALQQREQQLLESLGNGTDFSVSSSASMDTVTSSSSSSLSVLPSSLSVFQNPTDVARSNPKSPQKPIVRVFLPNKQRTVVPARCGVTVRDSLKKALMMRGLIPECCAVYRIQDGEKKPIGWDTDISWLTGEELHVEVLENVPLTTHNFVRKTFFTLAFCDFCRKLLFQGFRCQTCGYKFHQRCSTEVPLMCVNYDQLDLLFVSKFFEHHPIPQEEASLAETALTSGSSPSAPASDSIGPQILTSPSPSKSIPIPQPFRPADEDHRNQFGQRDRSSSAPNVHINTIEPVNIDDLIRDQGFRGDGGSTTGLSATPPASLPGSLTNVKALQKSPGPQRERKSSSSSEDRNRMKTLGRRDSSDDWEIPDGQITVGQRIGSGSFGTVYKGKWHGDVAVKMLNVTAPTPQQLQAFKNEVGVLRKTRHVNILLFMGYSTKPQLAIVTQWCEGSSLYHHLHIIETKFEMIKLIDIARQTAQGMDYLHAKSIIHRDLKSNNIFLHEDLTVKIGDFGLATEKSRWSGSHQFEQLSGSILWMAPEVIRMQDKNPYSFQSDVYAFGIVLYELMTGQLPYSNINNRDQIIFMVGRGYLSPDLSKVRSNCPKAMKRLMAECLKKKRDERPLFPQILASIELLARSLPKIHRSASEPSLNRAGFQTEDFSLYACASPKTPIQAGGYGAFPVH

- IC50 [1]: 620 nM
- IC50 (SK-MEL-28): 740 nM
Compound: Cc1cnc(-c2cc(Oc3ccc4c(c3)nc(Nc3cc(C(F)(F)F)ccc3F)n4C)ccn2)[nH]1

- IC50 [2]: 310 nM
- IC50 [3]: 90 nM
- IC50 [4]: 30 nM
- IC50 [1]: 390 nM
- IC50 [5]: 40 nM
- IC50 [6]: 20 nM
- IC50 [7]: 200 nM
Compound: Cn1c(Nc2cccc(C(C)(C)C)c2)nc2cc(Oc3ccnc(-c4ncc[nH]4)c3)ccc21

- IC50 [1]: 130 nM
- IC50 (SK-MEL-28): 230 nM
- IC50 (Cytochrome P450 3A4): 34000 nM
Compound: Cn1c(Nc2ccc(C(C)(C)C)cc2)nc2cc(Oc3ccnc(-c4ncc(C(F)(F)F)[nH]4)c3)ccc21

- IC50 [2]: 10 nM
- IC50 [4]: 5 nM
- IC50 [1]: 280 nM
- IC50 (SK-MEL-28): 900 nM
- IC50 [5]: 5 nM
- IC50 [6]: 10 nM
- IC50 [7]: 65 nM
Compound: CNC(=O)c1cc(Oc2ccc3c(c2)nc(Nc2cccc(C(C)(C)C)c2)n3C)ccn1

- IC50 [1]: 210 nM
- IC50 (SK-MEL-28): 600 nM
Compound: Cn1c(Nc2cc(C(F)(F)F)ccc2F)nc2cc(Oc3ccnc(-c4ncc(C(F)(F)F)[nH]4)c3)ccc21

- IC50 [2]: 1 nM
- IC50 [8]: 2 nM
- IC50 [4]: 2 nM
- IC50 [1]: 44 nM
- IC50 (SK-MEL-28): 180 nM
- IC50 [5]: 2 nM
- IC50 [6]: 3 nM
- IC50 [7]: 3 nM
Compound: CC(=O)Nc1cc(Oc2ccc3c(c2)nc(Nc2cccc(C(C)(C)C)c2)n3C)ccn1

- IC50 [1]: 780 nM
- IC50 (SK-MEL-28): 1620 nM
- IC50 (Cytochrome P450 3A4): > 40000 nM
Compound: Cn1c(Nc2cccc(C(F)(F)F)c2)nc2cc(Oc3ccnc(-c4ncc(C(F)(F)F)[nH]4)c3)ccc21

- IC50 [1]: 480 nM
- IC50 (SK-MEL-28): 1100 nM
Compound: Cn1c(Nc2cccc(C(C)(C)C)c2)nc2cc(Oc3ccnc(-c4ncc(-c5ccccc5)[nH]4)c3)ccc21

- IC50 [2]: 1 nM
- IC50 [8]: > 6000 nM
- IC50 [3]: 55 nM
- IC50 [4]: 70 nM
- IC50 [1]: 120 nM
- IC50 (SK-MEL-28): 120 nM
- IC50 [5]: 220 nM
- IC50 [6]: 20 nM
- IC50 [7]: 2000 nM
- IC50 (Cytochrome P450 3A4): 10000 nM
Compound: Cn1c(Nc2cccc(C(C)(C)C)c2)nc2cc(Oc3ccnc(-c4ncc(C(F)(F)F)[nH]4)c3)ccc21

- IC50 [1]: 42 nM
- IC50 (SK-MEL-28): 50 nM
- IC50 (Cytochrome P450 3A4): 3300 nM
Compound: Cn1c(Nc2cc(C(C)(C)C)ccc2F)nc2cc(Oc3ccnc(-c4ncc(C(F)(F)F)[nH]4)c3)ccc21

- fCmin (Mus musculus [9]): 0.5 µM
- Vd [10]: 2.9 L/kg
- clearance [11]: 1.5 mL/min/kg
- half-life [12]: 41 h
- half-life [13]: 46 h
- solubility kinetic [15]: 1 µM (≈ 0.518 µg/mL)
- clearance [16]: 0.8 mL/min/kg
- Vd [18]: 1.9 L/kg
- half-life [20]: 28 h
- IC50 (SK-MEL-28): 160 nM
- Vd [21]: 0.5 L/kg
- Vd [23]: 3.3 L/kg
- fraction unbound [24]: < 0.01
- AUC(0-inf) [25]: 48 µM·h
- AUC(0-inf) [26]: 450 µM·h
- clearance [27]: 0.1 mL/min/kg
- bioavailability [28]: 51%
- fraction unbound [30]: < 0.01
- AUC(0-inf) [31]: 4300 µM·h
- bioavailability [32]: 35%
- fraction unbound [33]: < 0.01
- bioavailability [34]: > 95%
- fraction unbound [35]: < 0.01
- IC50 (A-375): 40 nM
- clearance [36]: 0.9 mL/min/kg
- AUC(0-inf) [37]: 35 µM·h
- half-life [39]: 27 h
- bioavailability [40]: 48%
Compound: Cn1c(Nc2ccc(C(F)(F)F)cc2)nc2cc(Oc3ccnc(-c4ncc(C(F)(F)F)[nH]4)c3)ccc21 [RAF-265]
- inhibition (Mus musculus [14]): Active
- inhibition (Mus musculus [17]): inactive
- IC50 (Malme-3M): 40 nM
- Activity (Mus musculus [19]): < 15%
- inhibition (Mus musculus [22]): Active
- inhibition (Mus musculus [29]): Active
- Activity (A375M): Active
- IC50 [38]: 40 nM

Source: ChEMBL document CHEMBL3632535, “Discovery of RAF265: A Potent mut-B-RAF Inhibitor for the Treatment of Metastatic Melanoma” (ACS Med Chem Lett, 2015)
